Publication PMC9926234, “Iterative computational design and crystallographic screening identifies potent inhibitors targeting the Nsp3 macrodomain of SARS-CoV-2” (Proceedings of the National Academy of Sciences of the …, 2023)
Where two headings read alike, the source gives them in different places.

What was measured:
Type in all cases: binding
SARS-CoV-2 NSP3 Mac1 [1] = biological target: T1, SARS-CoV-2 NSP3 Mac1 (Severe acute respiratory syndrome coronavirus 2, UniProt P0DTD1); test: biochemical; conditions: for IC50: read-out: IC50; for Ki: read-out: Ki***
SARS-CoV-2 NSP3 Mac1 [2] = biological target: T1, SARS-CoV-2 NSP3 Mac1; conditions: for Refined occupancy: ligand occupancy after refinement (phenix.refine); for PanDDA hit?: Echo dispense 40 nl
SARS-CoV-2 NSP3 Mac1 [3] = biological target: T1, SARS-CoV-2 NSP3 Mac1; design: contains a conserved macrodomain enzyme (Mac1); conditions: for Spearman est (compound concentration vs apparent Tm): DSF dose responsiveness, 1 µM nsp3 mac1, adj p given
In short: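 ΔTma values are thermal shifts relative to a co-located DMSO-only control, read with 5 µM Fluorescent Yellow dye. Each compound was tested in triplicate over seven concentrations (two-fold steps, top 1,000 or 100 μM). Spearman correlation of concentration versus ΔTma tested whether the shift was dose-responsive.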

[4] = Ki estimation from HTRF-derived IC50, Cheng-Prusoff, peptide 400nM, Kd 2.68µM
[5] = PanDDA event map, 1 minus background density correction, crystal soaking of Mac1
[6] = true hit = binding in crystallographic soaking or the HTRF-based binding assay
[7] = HTRF ADPr-peptide displacement from SARS-CoV-2 Mac1
[8] = PanDDA event map 1-BDC, crystal soak, Compound_concentration 100 mM, PanDDA run dmso_34 or nohits_35 per dataset
[9] = crystal soak, Compound_concentration 100 mM, PanDDA run dmso_34 or nohits_35 per dataset
[10] = ligand modeled from this dataset, compound concentration 100 mM
[11] = ligand modeled in this dataset, crystal soak, Compound_concentration 100 mM

## O=C(CSc1nnn[nH]1)c1c[nH]c2ncc(Br)cc12 [R1104]
SARS-CoV-2 NSP3 Mac1 [1]; HTRF
  IC50: 55.3 µM
SARS-CoV-2 NSP3 Mac1 [1]; [4]
  Ki: 48.1 µM
SARS-CoV-2 NSP3 Mac1 [2]; PanDDA event map, 1-BDC of the hit dataset, crystal soak, compound concentration 100 mM
  1-BDC: 0.3
SARS-CoV-2 NSP3 Mac1 [2]; [5]
  1-BDC: 0.27
SARS-CoV-2 NSP3 Mac1 [2]; crystal soaking of Mac1
  Refined occupancy: 54
SARS-CoV-2 NSP3 Mac1 [2]; [6]
  HIT*: Y
SARS-CoV-2 NSP3 Mac1 [3]
  Spearman est (compound concentration vs apparent Tm): 0.54
SARS-CoV-2 NSP3 Mac1 [3]; maximal thermal upshift
  DSF max dTma: 1.16 ˚C

## O=C(O)CC1CN(c2ncnc3[nH]c4ccccc4c23)CC(C(F)(F)F)O1 (stereo not drawn) [Z1229]
SARS-CoV-2 NSP3 Mac1 [1]; HTRF
  IC50: 119 µM
SARS-CoV-2 NSP3 Mac1 [1]; [4]
  Ki: 104 µM
SARS-CoV-2 NSP3 Mac1 [2]; [6]
  HIT*: Y

## CC1(C)CN(c2ncnc3[nH]c4ccccc4c23)CC(CC(=O)O)O1 (stereo not drawn) [Z2215]
SARS-CoV-2 NSP3 Mac1 [1]; HTRF
  IC50: 116 µM
SARS-CoV-2 NSP3 Mac1 [1]; [4]
  Ki: 101 µM
SARS-CoV-2 NSP3 Mac1 [2]; [6]
  HIT*: Y

## O=C(O)C(F)(F)F.O=C(O)C1CN(c2ncnc3[nH]c4ccccc4c23)CC12CCC2 (stereo not drawn) [Z4706]
SARS-CoV-2 NSP3 Mac1 [1]; HTRF
  IC50: 15.4 µM
SARS-CoV-2 NSP3 Mac1 [1]; [4]
  Ki: 13.4 µM
SARS-CoV-2 NSP3 Mac1 [2]; [6]
  HIT*: Y

## O=C(O)CC1CCN(c2ncnc3[nH]c4ccccc4c23)CCC1(F)F (stereo not drawn) [Z6423]
SARS-CoV-2 NSP3 Mac1 [1]; HTRF
  IC50: 143 µM
SARS-CoV-2 NSP3 Mac1 [1]; [4]
  Ki: 124 µM
SARS-CoV-2 NSP3 Mac1 [2]; [6]
  HIT*: Y

## Nc1ccc(C(=O)OC2c3ccccc3CC2C(=O)O)c(O)c1 (stereo not drawn) [Z8507]
SARS-CoV-2 NSP3 Mac1 [1]; [7]
  IC50: 144 µM
SARS-CoV-2 NSP3 Mac1 [1]
  Ki: 125 µM
SARS-CoV-2 NSP3 Mac1 [2]; PanDDA event map background density correction, crystal soak, compound concentration 100 mM
  1-BDC: 0.37
SARS-CoV-2 NSP3 Mac1 [2]; [5]
  1-BDC (PanDDA): 0.37
SARS-CoV-2 NSP3 Mac1 [2]; ligand modeled in the crystal structure, crystal soak, compound concentration 100 mM
  Modeled?: TRUE
SARS-CoV-2 NSP3 Mac1 [2]; crystal soaking of Mac1
  Refined occupancy: 74
SARS-CoV-2 NSP3 Mac1 [2]; overall hit call: binding in crystallographic soaking or the HTRF-based binding assay
  HIT*: Y

## O=C(Nc1ccc(C(=O)NC2c3cccc(O)c3CC2C(=O)O)cn1)NC1CC1 (stereo not drawn) [Z8539_0054]
SARS-CoV-2 NSP3 Mac1 [1]; HTRF
  IC50: 16 µM
SARS-CoV-2 NSP3 Mac1 [1]; [4]
  Ki: 13.9 µM
SARS-CoV-2 NSP3 Mac1 [2]; [6]
  HIT*: Y

## O=C(Nc1ccc(C(=O)NC2c3cccc(O)c3CC2C(=O)O)c(Cl)c1)NC1CC1 (stereo not drawn) [Z8539_0055]
SARS-CoV-2 NSP3 Mac1 [1]; [7]
  IC50: 9.6 µM
SARS-CoV-2 NSP3 Mac1 [1]; HTRF
  IC50: 10 µM
SARS-CoV-2 NSP3 Mac1 [1]; [4]
  Ki: 8.7 µM
SARS-CoV-2 NSP3 Mac1 [2]; [8]
  1-BDC: 0.22
SARS-CoV-2 NSP3 Mac1 [2]; [5]
  1-BDC: 0.13
SARS-CoV-2 NSP3 Mac1 [2]; [9]
  PanDDA hit?: TRUE
SARS-CoV-2 NSP3 Mac1 [2]; [10]
  Modeled?: TRUE
SARS-CoV-2 NSP3 Mac1 [2]; crystal soaking of Mac1
  Refined occupancy: 26
SARS-CoV-2 NSP3 Mac1 [2]; [6]
  HIT*: Y

## CN(C(=O)c1ccc(NC(=O)NC2CC2)cc1)C1c2cccc(O)c2CC1C(=O)O (stereo not drawn) [Z8539_0056]
SARS-CoV-2 NSP3 Mac1 [1]
  binding to Mac1 in the HTRF assay, result in words: inactive

## Nc1cc(NC(=O)NC2CC2)ccc1C(=O)NC1c2cccc(O)c2CC1C(=O)O (stereo not drawn) [Z8539_0059]
SARS-CoV-2 NSP3 Mac1 [1]; [7]
  IC50: 0.9 µM
SARS-CoV-2 NSP3 Mac1 [1]; HTRF
  IC50: 0.8 µM
SARS-CoV-2 NSP3 Mac1 [1]; [4]
  Ki: 0.7 µM
SARS-CoV-2 NSP3 Mac1 [2]; [8]
  1-BDC: 0.25
SARS-CoV-2 NSP3 Mac1 [2]; [5]
  1-BDC (PanDDA): 0.25
SARS-CoV-2 NSP3 Mac1 [2]; [9]
  PanDDA hit?: TRUE
SARS-CoV-2 NSP3 Mac1 [2]; [11]
  Modeled?: TRUE
SARS-CoV-2 NSP3 Mac1 [2]; crystal soaking of Mac1
  Refined occupancy: 50
SARS-CoV-2 NSP3 Mac1 [2]; [6]
  HIT*: Y

## O=C(Nc1ccc(C(=O)NC2c3cccc(O)c3CC2C(=O)O)c2scnc12)NC1CC1 (stereo not drawn) [Z8539_0065]
SARS-CoV-2 NSP3 Mac1 [1]; [7]
  IC50: 3.3 µM
SARS-CoV-2 NSP3 Mac1 [1]; HTRF
  IC50: 4.8 µM
SARS-CoV-2 NSP3 Mac1 [1]; [4]
  Ki: 4.2 µM
SARS-CoV-2 NSP3 Mac1 [2]; [8]
  1-BDC: 0.09
SARS-CoV-2 NSP3 Mac1 [2]; [5]
  1-BDC (PanDDA): 0.09
SARS-CoV-2 NSP3 Mac1 [2]; [9]
  PanDDA hit?: TRUE
SARS-CoV-2 NSP3 Mac1 [2]; [11]
  Modeled?: TRUE
SARS-CoV-2 NSP3 Mac1 [2]; crystal soaking of Mac1
  Refined occupancy: 18
SARS-CoV-2 NSP3 Mac1 [2]; [6]
  HIT*: Y

## CNC(=O)Nc1ccc(C(=O)NC2c3cccc(O)c3CC2C(=O)O)cc1 (stereo not drawn) [Z8539_0077]
SARS-CoV-2 NSP3 Mac1 [1]
  binding to Mac1 in the HTRF assay, result in words: did not substantially change binding affinity
SARS-CoV-2 NSP3 Mac1 [1]; HTRF
  IC50: 1 µM
SARS-CoV-2 NSP3 Mac1 [1]; [4]
  Ki: 0.9 µM
SARS-CoV-2 NSP3 Mac1 [2]; [8]
  1-BDC: 0.25
SARS-CoV-2 NSP3 Mac1 [2]; [5]
  1-BDC: 0.2
SARS-CoV-2 NSP3 Mac1 [2]; [9]
  PanDDA hit?: TRUE
SARS-CoV-2 NSP3 Mac1 [2]; [10]
  Modeled?: TRUE
SARS-CoV-2 NSP3 Mac1 [2]; crystal soaking of Mac1
  Refined occupancy: 40
SARS-CoV-2 NSP3 Mac1 [2]; [6]
  HIT*: Y

## O=C(O)CC1CN(c2ncnc3[nH]c4ccccc4c23)CCO1 (stereo not drawn) [Z9596]
SARS-CoV-2 NSP3 Mac1 [1]; HTRF
  IC50: 37.1 µM
SARS-CoV-2 NSP3 Mac1 [1]; [4]
  Ki: 32.3 µM
SARS-CoV-2 NSP3 Mac1 [2]; [6]
  HIT*: Y

## CN(Cc1nnc2c(=O)[nH]ccn12)c1ccc2nccnc2n1 [ZINC001472868186]
SARS-CoV-2 NSP3 Mac1 [2]; [5]
  1-BDC: 0.15
SARS-CoV-2 NSP3 Mac1 [2]; PanDDA event map, crystal soak, Compound_concentration 30 mM, PanDDA run dmso_34
  1-BDC: 0.15
SARS-CoV-2 NSP3 Mac1 [2]; crystal soak, Compound_concentration 30 mM, PanDDA run dmso_34
  PanDDA hit?: TRUE
SARS-CoV-2 NSP3 Mac1 [2]; ligand modeled in structure, crystal soak, Compound_concentration 30 mM
  Modeled?: TRUE
SARS-CoV-2 NSP3 Mac1 [2]; crystal soaking of Mac1
  Refined occupancy: 30
SARS-CoV-2 NSP3 Mac1 [2]; overall hit flag: binding in crystallographic soaking or the HTRF-based binding assay
  HIT*: Y
SARS-CoV-2 NSP3 Mac1 [3]
  Spearman est (compound concentration vs apparent Tm): 0.79
SARS-CoV-2 NSP3 Mac1 [3]; maximal thermal upshift vs DMSO control
  DSF max dTma: 0.81 °C
